Type in all cases: in vivo
Series [1] has as its system Echinochloa crus-galli (ECHCG). Briefly: Herbicidal pre-emergence action, section A (Table A3). The note with it: application rate 320 g/ha; visual grading after ca. 3 weeks vs untreated controls. Summed up: (§1)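 In this greenhouse test, sown seeds under soil cover received the compounds as suspensions or emulsions, with 0.5% additive, at 600 l water/ha before emergence. Damage was assessed by eye after about 3 weeks, compared with untreated controls.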

In the next series the test system is Kochia scoparia (KCHSC). Briefly: Herbicidal pre-emergence action, section A (Table A4). The note with it: visual grading after ca. 3 weeks vs untreated controls. The method, boiled down:
as §1

The test system of a further series is Stellaria media (STEME). The series is described as follows: Herbicidal pre-emergence action, section A (Table A9). Summed up: as §1
Series [2] deals with Amaranthus retroflexus (AMARE). The series is described as follows: Herbicidal pre-emergence action, section A (Table A11). The following applies: application rate 320 g/ha. Summed up:
as §1

The test system of series [3] is Abutilon theophrasti (ABUTH). The series is described as follows: Herbicidal post-emergence action, section B (Table B1). The note with it: application rate 1280 g/ha, rated visually after about 3 weeks. The method, boiled down: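 In this greenhouse assay, compounds in WP or EC form were applied post-emergence with 0.5% additive at a water rate of 600 liters per hectare. Treatment took place at the one-leaf stage, and injury was rated visually about 3 weeks later against untreated plants.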

The test system of another series is Veronica persica (VERPE). The series is described as follows: Herbicidal pre-emergence action, section C (Table C10). The note with it: visual grading after ca. 3 weeks. Summed up:
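Pre-emergence, sandy loam. WP/EC formulations applied to covering soil surface, aqueous, + 0.5% additive, 600 l water/ha. Greenhouse, optimum growth. Visual % damage vs untreated, ca. 3 wk.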

In a further series the test system is Zea mays (ZEAMX). The series is described as follows: Pre-emergence effects on crop plants, section D (Table D1). The note with it: visual grading after ca. 3 weeks. The method, boiled down: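 Pre-emergence soil-surface spray, 320 g/ha or below, 600 l water/ha + 0.5% additive; WP/EC formulations; sandy loam; greenhouse; visual % damage vs untreated at ~3 wk.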

Series [4] deals with Echinochloa crus-galli (ECHCG). The series is described as follows: Herbicidal post-emergence action, section E (Table E5). The following applies: application rate 320 g/ha, visual assessment ca. 3 weeks after spraying. The source says:
Seeds of mono- and dicotyledonous weed plants and crop plants were sown, in plastic or organic planting pots, in sandy loam, covered with soil and grown in a greenhouse under controlled growth conditions. 2 to 3 weeks after sowing, the test plants were sprayed in the single-leaf stage. The compounds according to the invention, formulated in form of wettable powders (WP) or as emulsifiable concentrates (EC), were sprayed onto the green plant parts as aqueous suspension or emulsion, with the addition of 0.5% of an additive, at an application rate of 600 l of water/ha (converted). The test plants were placed in the greenhouse for ca. 3 weeks under optimum growth conditions, and then the effect of the preparations was assessed visually in comparison with untreated controls (herbicidal effect in percent (%): 100% effect=plants have died off, 0% effect=as control plants).

Series [5] concerns Triticum aestivum (TRZAS). Briefly: Post-emergence effects on crop plants, section F (Table F2). The note with it: crop plant damage, application rate 80 g/ha. Summed up: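 Sandy loam, greenhouse, controlled conditions. Spray at single-leaf stage (2–3 wk post-sowing); WP/EC aqueous suspension/emulsion + 0.5% additive, 600 l water/ha; rate ≤320 g/ha. Visual scoring ca. 3 wk post-spray vs untreated, % effect.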

The results in this text go back to US20240381872A1, “SUBSTITUTED 2,3-DIHYDRO[1,3]THIAZOLO[4,5-B]PYRIDINES, SALTS THEREOF AND THEIR USE AS HERBICIDALLY ACTIVE SUBSTANCES” (BAYER AKTIENGESELLSCHAFT, priority 2021, published 2024).

With `CC1(C(=O)N2CSc3cc(Br)c(-c4ccccc4)nc32)CC(Cl)=NO1` (stereo not drawn) [Example I-139], in series [1], the “pre-emergence activity against ECHCG in %” value worked out at 100%. In the series on Kochia scoparia (KCHSC) (application rate 1280 g/ha), the “pre-emergence activity against KCHSC in %” value is on record as 90%. Moreover, in the series on Stellaria media (STEME) (application rate 320 g/ha), the “pre-emergence activity against STEME in %” value was found to be 90%. Moreover, the “pre-emergence activity against AMARE in %” value in [2] amounted to 100%. Further, the “post-emergence activity against ABUTH in %” value in series [3] is given as 90%. For the same compound, the “pre-emergence activity against VERPE in %” value in the series with Veronica persica (VERPE) (application rate 320 g/ha) was 80%. Further, in the series with Zea mays (ZEAMX) (application rate 320 g/ha), the “pre-emergence activity against ZEAMX in % (crop plant damage)” value turned out to be 20%. For the same compound, in series [4], the “post-emergence activity against ECHCG in %” value amounted to 90%. Also, the “post-emergence activity against TRZAS in %” value in [5] stood at 0%.
Regarding `Cc1cc2c(nc1-c1ccccc1F)N(S(=O)(=O)Cc1ccc(F)cc1)CS2` [Example I-122], the “pre-emergence activity against ECHCG in %” value in [1] stood at 100%. Further, the “pre-emergence activity against KCHSC in %” value in the series with Kochia scoparia (KCHSC) (application rate 320 g/ha) stood at 90%. Further, the “pre-emergence activity against STEME in %” value in the series with Stellaria media (STEME) (application rate 320 g/ha) is given as 90%. The “pre-emergence activity against AMARE in %” value in [2] stood at 90%. The “post-emergence activity against ABUTH in %” value in [3] came to 90%. For the same compound, the “pre-emergence activity against VERPE in %” value with Veronica persica (VERPE) (application rate 320 g/ha) is on record as 80%. The “pre-emergence activity against ZEAMX in % (crop plant damage)” value in the series with Zea mays (ZEAMX) (application rate 320 g/ha) is 0%. Also, the “post-emergence activity against ECHCG in %” value in series [4] is recorded as 90%. Moreover, the “post-emergence activity against TRZAS in %” value in series [5] came to 20%.
In the case of `Cc1ccccc1-c1nc2c(cc1C)SCN2C(=O)C1(C)CC(Cl)=NO1` (stereo not drawn) [Example I-137], the “pre-emergence activity against ECHCG in %” value in series [1] is recorded as 100%. In the series with Kochia scoparia (KCHSC) (application rate 320 g/ha), the “pre-emergence activity against KCHSC in %” value is recorded as 90%. The “pre-emergence activity against STEME in %” value with Stellaria media (STEME) (application rate 1280 g/ha) is 100%. Also, the “pre-emergence activity against AMARE in %” value in series [2] was determined as 100%. The “post-emergence activity against ABUTH in %” value in series [3] worked out at 90%. For the same compound, the “pre-emergence activity against VERPE in %” value with Veronica persica (VERPE) (application rate 80 g/ha) turned out to be 80%. In addition, the “pre-emergence activity against ZEAMX in % (crop plant damage)” value in the series on Zea mays (ZEAMX) (application rate 80 g/ha) amounted to 20%. Moreover, the “post-emergence activity against ECHCG in %” value in [4] turned out to be 90%. Besides, the “post-emergence activity against TRZAS in %” value in [5] is given as 0%.
